Results from patent EP0358152A1, “Diazine-substituted 1-adamantanes, process for their preparation, and their use as medicaments” (priority 1988, dated 1990).
Where “and” joins values, the source holds several entries; their conditions need not be identical. Equal entries are not always repeated.

Key:
[1] = test system: Influenzavirus Typ A Subtyp H1N1 A/Taiwan 1/86; assay type: cell-based
[2] = test system: Subtyp H3N2 A/Philippines 2/82; assay type: cell-based, Influenzaviren Typ A
Influenzaviren vom Typ B = assay: Inhibitory effect on influenza viruses of type B; assay type: cell-based; conditions: statement in words
[3] = test system: Subtyp H2N2 A/Singapore 1/57; assay type: cell-based, Influenzaviren Typ A
[4] = test system: Subtyp H3N2 A/Hongkong 1/68; assay type: cell-based, Influenzaviren Typ A
[5] = test system: Subtyp H1N1 A/Brasil 11/78; assay type: cell-based, Influenzaviren Typ A
Typ B B/Singapore 222/79 = assay type: cell-based, Influenzaviren Typ B
A/Krasnodar 101/59 = assay type: cell-based, Influenzaviren Typ A

With `CC(N)C12CC3CC(CC(C3)C1)C2.Cl` (stereo not drawn) [Rimantadin, α-Methyl-1-adamantanmethylaminhydrochlorid] the “Titerreduktion (log 10)” value [1] was 1,5 log 10 and 1,84 log 10, the “Titerreduktion (log 10)” value [2] was 0,17 log 10 and the “Hemmwirkung gegenüber Influenzaviren vom Typ B” value (Influenzaviren vom Typ B) was “nicht spezifisch wirksam”. The “ID₅₀ (log 10) mit Wirkstoff” value [3] was 2,5 log 10.
With `Cc1cc(C23CC4CC(CC(C4)C2)C3)ncn1` [6-(Adamant-1-yl)-4-methyl-pyrimidin, 6-(Adamant-1-yl)-4-methylpyrimidin] the “ID50 mit Wirkstoff (log 10)” value [4] was 3,83 log 10, the “Titerdifferenz (log 10)” value [4] was 0,92 log 10 and the “ID50 mit Wirkstoff (log 10)” value [2] was 5,0 log 10 and 5,67 log 10. For the same compound, the “ID50 mit Wirkstoff (log 10)” value [5] was 3,83 log 10 and 3,33 log 10 and 3,0 log 10, the “ID50 mit Wirkstoff (log 10)” value (Typ B B/Singapore 222/79) was 5,67 log 10 and the “Titerdifferenz (log 10)” value (Typ B B/Singapore 222/79) was 0,66 log 10 and 0,5 log 10. The “ID50 mit Wirkstoff (log 10)” value (A/Krasnodar 101/59) was 2,5 log 10 and the “Titerdifferenz (log 10)” value (A/Krasnodar 101/59) was 2,5 log 10.
`c1cc(C23CC4CC(CC(C4)C2)C3)ncn1` [4-(Adamant-1-yl)-pyrimidin] was tested, and the “ID50 mit Wirkstoff (log 10)” value [2] was 5,17 log 10 and the “Titerdifferenz (log 10)” value [3] was 1,33 log 10 and 1,5 log 10 and 1,34 log 10.
With `Nc1nccc(C23CC4CC(CC(C4)C2)C3)n1` [4-(Adamant-1-yl)-2-amino-pyrimidin, 4-(Adamant-1-yl)-2-aminopyrimidin] the “Titerdifferenz (log 10)” value [5] was 2,8 log 10 and 2,0 log 10 and the “Titerdifferenz (log 10)” value [3] was 1,55 log 10 and 1,67 log 10.
In the case of `Cc1cncc(C23CC4CC(CC(C4)C2)C3)n1` [6-(Adamant-1-yl)-2-methyl-pyrazin, 6-(Adamant-1-yl)-2-methylpyrazin], the “ID50 mit Wirkstoff (log 10)” value [5] is reported as 3,33 log 10 and 3,67 log 10 and the “Titerdifferenz (log 10)” value [5] is reported as 1,97 log 10 and 1,66 log 10.
For `c1cnc(C23CC4CC(CC(C4)C2)C3)cn1` [2-(Adamant-1-yl)-pyrazin, 2-(Adamant-1-yl-)-pyrazin], the “ID50 mit Wirkstoff (log 10)” value [2] was 5,5 log 10, the “Titerdifferenz (log 10)” value [2] was 0,33 log 10 and 0,83 log 10 and the “Titerdifferenz (log 10)” value [3] was 1,51 log 10 and 1,33 log 10 and 1,17 log 10.
